The results in this text go back to PubChem BioAssay AID489022 (Sanford-Burnham Center for Chemical Genomics, 2010).

Structures are written as SMILES. Active and inactive are the calls of the source. How the calls were made is not given here. A value given as a limit tells only on which side of the number the result lay.

The experiment deals with HEK-293T NF-kB luciferase reporter, luminescence counterscreen. Put plainly: NF-kB reporter suppression in HEK-293T cells – luminescence, B-cell screen hits, counter-screen for BCR NF-kB inhibitor project, dose response (AID 489022).

One may read the IC50 as the point on the concentration scale where inhibition reaches its midpoint. Take `Cc1ccc(Nc2nc(N/N=C\c3ccc4c(c3)OCO4)nc(N3CCOCC3)n2)cc1`: the IC50 was > 80 µM (inactive).

Turning to `COc1cc(-c2nc(C(=O)NCC3CCCO3)cc3c2[nH]c2ccccc23)cc(OC)c1OC` (configuration not stated), the IC50 is 13.7 µM. As to `COc1ccc(C=C(C(C)=O)C(C)=O)cc1OC`, the IC50 is > 80 µM (inactive). Regarding `CC(=O)c1cn(CCOc2cc(C)ccc2C)c2ccccc12`, the IC50 is 0.29 µM. The value for `COc1ccc(-c2ccc(N(C)C)cc2)cc1[C@H]1[C@H]2C=CC[C@@H](C)[C@@H]2C(=O)N1Cc1ccccc1` was > 80 µM (inactive). The value for `COC(=O)c1c(-c2ccc(N(C)C)cc2)sc2ccc(OC)cc12` was > 80 µM (inactive). The value for `COC(=O)c1cc(NC(=O)Nc2cc(OC)ccc2OC)cc(C(=O)OC)c1` was > 80 µM (inactive); that for `Cc1ccc(/C=C2\SC(=S)N(CCCC(=O)Nc3ccc(O)cc3)C2=O)cc1` was > 80 µM (inactive); that for `Cn1c(=O)n(C)c2cc(C(=O)Nc3ccc4c(c3)OCO4)ccc21` was > 80 µM (inactive). `COc1ccc(OCc2cccc(C(=O)Nc3cc(C)on3)c2)cc1`: the IC50 was 50.6 µM (inactive). For `CCN(C(=O)CN1C(=O)NC(c2ccccc2)(c2ccc(C)c(C)c2)C1=O)C1CCCCC1` (configuration not stated), the IC50 is 26.6 µM (inactive). The value for `CC(C)C[C@@H](N)c1nnc(SCC(=O)c2ccc(Cl)cc2)o1` was 31.9 µM (inactive); that for `COc1ccc(C(=O)Nc2ccccc2C(=O)NCc2ccco2)cc1OC` was > 80 µM (inactive). As for `Cc1cc(C)cc(NC(=O)Nc2ccc(NC(=O)c3ccccc3O)cc2)c1`, the figure is > 80 µM (inactive). The value for `Nc1ccc(-c2cc3ccccc3oc2=O)cc1` was 3.53 µM; that for `COc1cc(NC(=O)c2ccco2)c(OC)cc1NC(=O)c1cc(OC)c(OC)c(OC)c1` was 17.7 µM; that for `Cc1cc2ccccn2c1C(=O)c1ccc(NN)c([N+](=O)[O-])c1` was 30.5 µM (inactive).

For the compound `C[C@H]1CCC/C=C/C2C[C@H](O)CC2[C@H](O)/C=C/C(=O)O1` (some centres not stated), the IC50 is 0.29 µM.

As to `Cc1ccc(O)c(NC(=O)COc2cc(C)ccc2C)c1`, the IC50 was > 80 µM (inactive).

Consider `CCC(CO)Oc1cc(NCc2ccccc2O)c2ncn(C(C)C)c2c1` (configuration not stated), for which the IC50 was 4.79 µM. The value for `COc1ccc(C(=O)Nc2ccc(OC)c([N+](=O)[O-])c2)cc1Br` was > 80 µM (inactive). As for `CC(C)(C)c1ccc(-c2nnc(SCC(=O)NC3CC3)o2)cc1`, the figure is 63.1 µM (inactive); as for `CC(C)(C)c1ccc(-c2noc(CCC(=O)NCC3CCCO3)n2)cc1` (configuration not stated), 1.22 µM. The value for `COCCNC(=O)CSCc1nc(-c2ccc(SC)cc2)oc1C` was 65.6 µM (inactive). Regarding `COc1ccc(C(=O)Nc2cccc(NC(=O)c3ccc(OC)c(OC)c3)n2)cc1OC`, the IC50 is 15.4 µM. The value for `COc1ccc(C(C(=O)NC2CCCCC2)N(C(=O)CCl)c2ccc(OC)cc2)cc1` (configuration not stated) was 15.2 µM. Take `CC(C)(C)c1ccc(-c2noc(CCC(=O)Nc3cccnc3)n2)cc1`: the IC50 was 0.55 µM. The value for `Cc1ccc(/C=C2/SC(=S)N(CCCC(=O)Nc3ccc(O)cc3)C2=O)cc1` was > 80 µM (inactive); that for `CCN1C(=O)c2cccc3c(S(=O)(=O)Nc4ccccc4)ccc1c23` was 18.7 µM. As for `CCN(CC)C(=O)c1ccc(S(=O)(=O)Cc2ccc(C)cc2)c([N+](=O)[O-])c1`, the figure is 34.7 µM (inactive); as for `Cc1nc2cc(-c3ccc(Cl)cc3)nn2c(C)c1CCC(=O)NC(C)c1ccc2c(c1)OCCO2` (configuration not stated), 11.5 µM; as for `COc1ccccc1/C=C1\SC(=S)N(CCC(=O)Nc2nnc(C)s2)C1=O`, > 80 µM (inactive). As for `COc1ccc(/C=N\NC(=O)c2sccc2C)cc1Cn1nc(C)cc1C`, the figure is 25.4 µM (inactive); as for `CCNc1nc(C)c2cc(Br)c(=O)n(CC)c2n1`, > 80 µM (inactive).

Take `O=C(CN1C(=O)c2ccccc2S1(=O)=O)c1ccccc1Cl`: the IC50 is 7 µM.

As for `O=C(CCCc1nc(-c2ccccc2Cl)no1)NC1CCCC1`, the IC50 was 27.1 µM (inactive). The value for `Cc1ccccc1Nc1nc(Cl)c(C=O)s1` was > 80 µM (inactive); that for `CC(C)c1ccc(/C=C2\SC(=S)N(CCC(=O)NCCCn3ccnc3)C2=O)cc1` was 50.2 µM (inactive). As for `COc1ccccc1/C=C1\SC(=S)N(CCC(=O)Nc2cccc(O)c2)C1=O`, the figure is > 80 µM (inactive). In the case of `Cc1cc(C)c(S(=O)(=O)NCc2ccncc2)c(C)c1`, the IC50 was 0.97 µM. With `Cc1c(CCC(=O)N2CCC(C(=O)O)(c3ccccc3)CC2)c(=O)oc2cc3oc4c(c3cc12)CCCC4`, the IC50 was 21.6 µM (inactive). For `O=C(Nc1cccc(Oc2ccc3c(c2)C(=O)NC3=O)c1)c1cccs1`, the IC50 is 28.8 µM (inactive). Take `N=c1c2c(n(Cc3ccc(Cl)cc3Cl)c3c1CCC3)CCCC2`: the IC50 is 3.43 µM.

As for `O=C(Cc1cccc2ccccc12)Nc1ccc(-c2cc3ccccc3oc2=O)cc1`, the IC50 is > 80 µM (inactive). The value for `COc1ccc(-n2nnnc2S(=O)(=O)CC(=O)N2CCCCC2)cc1` was 16.9 µM; that for `Cn1cnc([N+](=O)[O-])c1Sc1ccc([N+](=O)[O-])cc1` was > 80 µM (inactive).

As to `CCn1c(=O)c2cc(C(=O)NC(C)C)sc2c2ccccc21`, the IC50 was > 80 µM (inactive). As for `COc1cc(-c2[nH]nc3c2C(c2ccco2)C(C#N)=C(N)O3)cc(OC)c1OC` (configuration not stated), the figure is > 80 µM (inactive). As for `Cc1nc2cc(-c3ccccc3)nn2c(C)c1CCC(=O)N1CCC2(CC1)OCCO2`, the figure is 52 µM (inactive); as for `C/C(=N\Nc1nc(Nc2ccccc2)nc(N2CCOCC2)n1)c1cccs1`, > 80 µM (inactive). With `COc1ccc(-n2ncc3c(N4CCC(C(N)=O)CC4)ncnc32)cc1`, the IC50 is > 80 µM (inactive). As for `C=C1C(=O)[C@@]23C[C@H]4[C@@H]5[C@@]6(C)CCC[C@@]57[C@@H]2[C@@H](O)[C@@H]1C[C@H]3[C@H]7N4C6`, the figure is 17.3 µM; as for `Cc1ccc(-c2nsc3c(N4CCC(C(N)=O)CC4)ncnc23)cc1`, > 80 µM (inactive); as for `O=C(NCCCN1CCOCC1)c1cc(-c2ccc(Br)cc2)on1`, 43.7 µM (inactive). The value for `O=C(Nc1ccc(NC(=O)c2cc3ccccc3o2)cc1)c1ccc2c(c1)OCCO2` was > 80 µM (inactive).

In the case of `Cc1ccc(/C=C2\SC(=S)N(CCCC(=O)NC3CCCC3)C2=O)cc1`, the IC50 is > 80 µM (inactive). The value for `Cc1nc([N+](=O)[O-])c(Sc2nc3ccc([N+](=O)[O-])cc3[nH]2)n1Cc1ccccc1` was 47.5 µM (inactive). The value for `CC1=CC(C)(C)Nc2ccc(OC(=O)C(Cc3ccccc3)N3C(=O)c4ccccc4C3=O)cc21` (configuration not stated) was > 80 µM (inactive); that for `CCc1ccc(/C=C2\SC(=S)N(CCCC(=O)Nc3ccccn3)C2=O)cc1` was > 80 µM (inactive); that for `Cc1cc(C)c2nc(NC(=O)[C@@H](NC(=O)c3cccc(S(=O)(=O)N4CCOCC4)c3)C(C)C)sc2c1` was > 80 µM (inactive). As for `COc1ccc(/C=C2\SC(=S)N(CCCC(=O)NNC(=O)c3ccccc3O)C2=O)cc1`, the IC50 is 2.28 µM.

Take `CC1CCN(c2c(NCc3ccc(C(=O)N4c5ccccc5CC4C)cc3)c(=O)c2=O)CC1` (configuration not stated): the IC50 is 8.73 µM.
